# Measured values from PubChem BioAssay (NCI).
#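 Where inhibition never reached the appropriate level, the endpoint shown equals the highest concentration tested. Otherwise, values were interpolated linearly from a five-concentration, 48-hour dose response in 96-well plates. At the GI50, growth is halved. The concentration for full growth arrest is given as TGI.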
# Assays:
# Test in all cases: NCI tumour cell line growth inhibition, 48 h
# OVCAR-4 ovarian = tested on: OVCAR-4 ovarian
# OVCAR-5 ovarian = tested on: OVCAR-5 ovarian
# HCC-2998 colon = tested on: HCC-2998 colon
# MALME-3M melanoma = tested on: MALME-3M melanoma
# HT29 colon = tested on: HT29 colon
# A498 renal = tested on: A498 renal
# SF-268 CNS = tested on: SF-268 CNS
# NCI-H460 lung = tested on: NCI-H460 lung
# BT-549 breast = tested on: BT-549 breast
# MDA-MB-435 = tested on: MDA-MB-435
Compound,TGI (OVCAR-4 ovarian) [µM],TGI (OVCAR-5 ovarian) [µM],TGI (HCC-2998 colon) [µM],TGI (MALME-3M melanoma) [µM],TGI (HT29 colon) [µM],TGI (A498 renal) [µM],TGI (SF-268 CNS) [µM],TGI (NCI-H460 lung) [µM],GI50 (OVCAR-4 ovarian) [µM],GI50 (BT-549 breast) [µM],TGI (BT-549 breast) [µM],GI50 (OVCAR-5 ovarian) [µM],GI50 (MDA-MB-435) [µM],TGI (MDA-MB-435) [µM],GI50 (MALME-3M melanoma) [µM],GI50 (HT29 colon) [µM],GI50 (A498 renal) [µM],GI50 (SF-268 CNS) [µM],GI50 (NCI-H460 lung) [µM],GI50 (HCC-2998 colon) [µM]
COC(=O)C1Cc2c([nH]c3ccccc23)C=N1 (configuration not stated),> 100,> 100,> 100,> 100,> 100,> 100,> 100,> 100,,,,,,,,,,,,
Cc1cc(Cl)ccc1NC(=O)C1C(=O)N(c2ccc(Cl)cc2C)C(=O)/C1=N\N (configuration not stated),> 100,> 100,67.3,> 100,> 100,93.7,96.4,> 100,,,,,,,,,,,,
O=C(/C=C/c1ccccc1F)C(c1ccccc1)c1ccccc1,,,,23.7,11.5,,11.3,,,,,,,,,,,,,
N#CC(C#N)=C1NC(=O)C(c2ccccc2)C(=O)N1 (configuration not stated),> 100,> 100,> 100,> 100,> 100,> 100,> 100,> 100,,,,,,,,,,,,
COc1nc2c(nc(N)n2C2OC(CO)C(O)C(O)C2O)c(=O)n1C (configuration not stated),> 100,,> 100,> 100,> 100,> 100,> 100,> 100,,,,,,,,,,,,
CC(O)CN(CCN(CC(C)O)CC(C)O)CC(C)O.O=[N+]([O-])O.[Cu+2] (configuration not stated),> 100,> 100,,> 100,> 100,63.3,> 100,> 100,73.6,> 100,> 100,> 100,> 100,> 100,> 100,> 100,30.9,> 100,99.2,
N#C/C(=C/N1CCN(C(=O)c2ccco2)C1=S)C(N)=O,73.8,,,56.8,> 100,,36.4,50.7,18.5,22.5,55.9,,14.6,44.1,12.5,24.1,,11.7,3.99,
CCCCCCCCCCCCC(Br)C(=O)SCCNC(=O)CCNC(=O)[C@@H](O)C(C)(C)COP(=O)(O)OP(=O)(O)OCC1OC(n2cnc3c(N)ncnc32)C(O)C1OP(=O)(O)O (some centres not stated),> 56.5,> 56.5,> 56.5,> 56.5,> 56.5,> 56.5,> 56.5,> 56.5,,,,,,,,,,,,
COC(=O)/C(C#N)=C1\N=NNN1CCCc1ccccc1,,,> 100,> 100,> 100,> 100,,> 100,,,,,,,,,,,,
CC(CN(CP(=O)([O-])[O-])CP(=O)([O-])[O-])N(CP(=O)([O-])[O-])CP(=O)([O-])[O-].N[C@@H]1CCCC[C@@H]1N.[Pt+2] (configuration not stated),> 100,> 100,> 100,> 100,> 100,> 100,> 100,> 100,> 100,,,> 100,,,> 100,> 100,> 100,> 100,> 100,> 100
Cc1cc2c(=O)cc(-c3ccc(Cl)cc3)oc2c(C(=O)O)c1C,> 100,> 100,,> 100,> 100,,> 100,> 100,,,,,,,,,,,,
C/C=C/C1(NS(=O)(=O)c2ccc(C)cc2)CCC(C(C)(C)C)CC1 (configuration not stated),48.4,39.5,36.1,49.4,37.9,49.3,59.5,51.5,,,,,,,,,,,,
CCOc1ccc(NC(=O)C2=C(C)NC(C)=C(C(=O)Nc3ccc(OCC)cc3)C2c2ccc([N+](=O)[O-])cc2)cc1,> 100,86.9,52.7,> 100,86,66.2,> 100,> 100,,,,,,,,,,,,
C[Si](C)(C)/C(Br)=C\CCN1C(=O)CCC1O (configuration not stated),> 100,> 100,,> 100,> 100,> 100,> 100,> 100,,,,,,,,,,,,
CC(C)(C)c1cc(C(O)(C(F)(F)F)C(F)(F)F)c2c(c1)C(C(F)(F)F)(C(F)(F)F)OC(c1ccccc1)(C(C)(C)C)N2 (configuration not stated),46.3,50.9,21.1,27.6,14.4,,,11.7,,,,,,,,,,,,
Cc1ccccc1NC(=O)c1[nH]c(=S)nc(N)c1-c1ccccc1C,> 100,> 100,> 100,> 100,> 100,> 100,> 100,> 100,,,,,,,,,,,,

Compound,TGI (OVCAR-4 ovarian) [µM],TGI (OVCAR-5 ovarian) [µM],TGI (HCC-2998 colon) [µM],TGI (MALME-3M melanoma) [µM],TGI (HT29 colon) [µM],TGI (A498 renal) [µM],TGI (SF-268 CNS) [µM],TGI (NCI-H460 lung) [µM],GI50 (OVCAR-4 ovarian) [µM],GI50 (BT-549 breast) [µM],TGI (BT-549 breast) [µM],GI50 (OVCAR-5 ovarian) [µM],GI50 (MDA-MB-435) [µM],TGI (MDA-MB-435) [µM],GI50 (MALME-3M melanoma) [µM],GI50 (HT29 colon) [µM],GI50 (A498 renal) [µM],GI50 (SF-268 CNS) [µM],GI50 (NCI-H460 lung) [µM],GI50 (HCC-2998 colon) [µM]
Cc1cc(Cl)ccc1N1C(=O)C(=O)C(c2nc3ccccc3s2)C(=O)C1=O,> 100,> 100,,> 100,> 100,> 100,> 100,> 100,,,,,,,,,,,,
CCN1C(=O)N(c2c(F)c(OC)cc(OC)c2F)Cc2cnc3[nH]c(CN4CCOCC4)cc3c21,> 100,> 100,,20.2,> 100,,> 100,> 100,1.69,0.0491,15.7,9.23,4.65,> 100,1.45,2.84,,2.19,1.86,
Cc1ccc(S(=O)(=O)N2CCCCC2CCO)cc1 (configuration not stated),> 100,> 100,> 100,> 100,> 100,> 100,> 100,> 100,,,,,,,,,,,,
O=C1C(c2ccccc2)=C(c2ccccc2)C(c2ccccc2)/C1=C1\C(=O)C(c2ccccc2)=C(c2ccccc2)C1c1ccccc1 (configuration not stated),> 100,> 100,> 100,> 100,> 100,> 100,> 100,> 100,,,,,,,,,,,,
O=S1(=O)CSc2ccc3ccccc3c2-c2c1ccc1ccccc21,> 100,> 100,> 100,> 100,> 100,,> 100,> 100,,,,,,,,,,,,
CN(C)/[N+]([O-])=N/Oc1cc(Nc2ccc(C(=O)O)cc2)c([N+](=O)[O-])cc1[N+](=O)[O-],,> 100,,,> 100,,40.1,> 100,,18.5,34.6,38.5,19.8,39.2,,44.2,,20.4,32.2,
COc1cc(/C=C/C(=O)c2ccc(Nc3nc(Nc4ccc(F)cc4)nc(Nc4ccc(F)cc4)n3)cc2)cc(OC)c1OC,> 100,> 100,> 100,82.4,> 100,49,> 100,> 100,> 100,,,20.5,17.1,> 100,17.1,9.36,15.7,41.2,7.92,27.7
Cc1cccc(C)c1NC(=O)C(=O)C1C(=O)N(c2ccccc2)N=C1N (configuration not stated),> 100,> 100,> 100,> 100,> 100,> 100,> 100,> 100,,,,,,,,,,,,
CC(C)(C)c1ccccc1NS(=O)(=O)c1ccccc1,> 100,> 100,> 100,> 100,> 100,> 100,,> 100,,,,,,,,,,,,
O=c1c2ccccc2nc(-c2ccc(Cl)cc2)n1O,> 100,> 100,,,> 100,> 100,> 100,> 100,,,> 100,,,> 100,,,,,,
Cc1ccc(/C=C2\CCOC2=O)cc1,> 100,> 100,,> 100,> 100,97.3,> 100,> 100,> 100,> 100,> 100,> 100,,,> 100,> 100,11.8,60.2,> 100,
Cc1cc(S(N)(=O)=O)c(S/C(=N\NS(=O)(=O)c2ccc(Cl)cc2)c2ccc(Cl)cc2)cc1Cl,> 100,> 100,,,,,> 100,> 100,> 100,> 100,> 100,> 100,> 100,> 100,,,,> 100,> 100,
COc1ccccc1NC(=O)C1=C(C)NC(C)=C(C(=O)Nc2ccccc2OC)C1c1ccc(C(C)C)cc1,> 100,> 100,> 100,> 100,> 100,> 100,> 100,> 100,,,,,,,,,,,,
Cc1c2c(nn1-c1ccc(S/N=C3\SCC(=O)CN3c3ccccc3)cc1)-c1ccccc1CC2,> 50,> 50,,> 50,> 50,,> 50,> 50,37.6,11.1,34.5,> 50,16.8,> 50,> 50,34.5,,20.2,15.2,
O=C(OCCOCCOC(=O)c1c[nH]cc1-c1ccccc1)c1c[nH]cc1-c1ccccc1,49.7,62.2,42.4,55.2,35.2,53.1,40,46.9,,,,,,,,,,,,
